Assay results as given in patent US7939534B2, “Certain chemical entities, compositions, and methods” (Cytokinetics, Inc., priority 2006, dated 2011).

Target: T1, chicken gizzard smooth muscle myosin subfragment-1 chemically crosslinked to either cardiac or skeletal actin (Gallus gallus, UniProt P10587)
T1 construct: chicken gizzard smooth muscle myosin subfragment-1; from tissue; host or cells: chicken gizzard
Assay: Dose dependent smooth muscle myosin ATPase modulation (pyruvate kinase/horseradish peroxidase/pyruvate oxidase-coupled ATPase assay)
Format: biochemical
Conditions: read-out: IC50 Arithmetic Mean
Summary of the method: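 Chicken gizzard smooth muscle myosin S1 crosslinked (EDC/NHS) to cardiac or skeletal actin, concentration titrated to a set ATPase rate. Pyruvate kinase/pyruvate oxidase/HRP-coupled assay, 0.15 mM ATP, 12 mM K-PIPES pH 7.00, 100 mM KCl, amplex red fluorescence; IC50 from 4-parameter fit.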

Structure (SMILES) | IC50 [µM]
C[C@H](CNC(=O)c1cc(F)c(N2CCCC2)nc1NCCc1cccc(F)c1)NC(=O)CN [Compound 82, N-{(1R)-2-[(5-fluoro-2-{[2-(3-fluorophenyl)ethyl]amino}-6-pyrrolidinyl(3-pyridyl))carbonylamino]-isopropyl}-2-aminoacetamide] | 0.197
CS(=O)(=O)N1CC=C(c2ccc(C(=O)NCc3cccnc3)c(NCCc3cccc(F)c3)n2)CC1 [Compound 83, (2-{[2-(3-fluorophenyl)ethyl]amino}-6-[1-(methylsulfonyl)(4-1,2,5,6-tetrahydropyridyl)](3-pyridyl))-N-(3-pyridylmethyl)carboxamide] | 6.4
CN(C)C(=O)N1CCN(c2ccc(C(=O)NCc3cccnc3)c(NCCc3cccc(F)c3)n2)CC1 [Compound 84, [4-(6-{[2-(3-fluorophenyl)ethyl]amino}-5-[N-(3-pyridylmethyl)carbamoyl](2-pyridyl))piperazinyl]-N,N-dimethylcarboxamide] | 48.5
COC(=O)N1CCN(c2ccc(C(=O)NCc3cccnc3)c(NCCc3cccc(F)c3)n2)CC1 [Compound 85, methyl 4-(6-{[2-(3-fluorophenyl)ethyl]amino}-5-[N-(3-pyridylmethyl)carbamoyl]-2-pyridyl)piperazinecarboxylate] | 1.53
NC1CCN(c2ccc(C(=O)NCc3cccnc3)c(NCCc3cccc(F)c3)n2)C1 (stereo not drawn) [Compound 86, (6-(3-aminopyrrolidinyl)-2-{[2-(3-fluorophenyl)ethyl]amino}(3-pyridyl))-N-(3-pyridylmethyl)carboxamide] | 23.1
O=C(NCc1cccnc1)c1ccc(N2CCOCC2)nc1NCCc1cccc(F)c1 [Compound 87, (2-{[2-(3-fluorophenyl)ethyl]amino}-6-morpholin-4-yl(3-pyridyl))-N-(3-pyridylmethyl)carboxamide] | 2.67
O=C(NCc1cccnc1)c1ccc(N2CCC[C@@H]2CO)nc1NCCc1cccc(F)c1 [Compound 88, (6-[(2R)-2-(hydroxymethyl)pyrrolidinyl]-2-{[2-(3-fluorophenyl)ethyl]amino}(3-pyridyl))-N-(3-pyridylmethyl)carboxamide] | 10.5
CNC(=O)CNC(=O)c1ccc(N2CC[C@H](O)C2)nc1NCCc1cccc(F)c1 [Compound 89, 2-[(6-((3S)-3-hydroxypyrrolidinyl)-2-{[2-(3-fluorophenyl)ethyl]amino}(3-pyridyl))carbonylamino]-N-methylacetamide] | 8.25
CNC(=O)CNC(=O)c1ccc(N2CCC(O)CC2)nc1NCCc1cccc(F)c1 [Compound 90, 2-[(2-{[2-(3-fluorophenyl)ethyl]amino}-6-(4-hydroxypiperidyl)(3-pyridyl))carbonylamino]-N-methylacetamide] | 9.5
CC(C)(C)OC(=O)NC1CCN(c2ccc(C(=O)NCc3cccnc3)c(NCCc3cccc(F)c3)n2)C1 (stereo not drawn) [Compound 91, (tert-butoxy)-N-[1-(6-{[2-(3-fluorophenyl)ethyl]amino}-5-[N-(3-pyridylmethyl)carbamoyl](2-pyridyl))pyrrolidin-3-yl]carboxamide] | 18.5
CN(C)[C@@H]1CCN(c2ccc(C(=O)NCc3cccnc3)c(NCCc3cccc(F)c3)n2)C1 [Compound 92, (6-[(3R)-3-(dimethylamino)pyrrolidinyl]-2-{[2-(3-fluorophenyl)ethyl]amino}(3-pyridyl))-N-(3-pyridylmethyl)carboxamide] | 76
O=C(O)CC1CCN(c2ccc(C(=O)NCc3cccnc3)c(NCCc3cccc(F)c3)n2)C1 (stereo not drawn) [Compound 95, 2-[1-(6-{[2-(3-fluorophenyl)ethyl]amino}-5-[N-(3-pyridylmethyl)carbamoyl]-2-pyridyl)pyrrolidin-3-yl]acetic acid] | 5.6
O=C(NCc1cccnc1)c1ccc(N2CCC(c3ccncc3)C2)nc1NCCc1cccc(F)c1 (stereo not drawn) [Compound 96, (2-{[2-(3-fluorophenyl)ethyl]amino}-6-(3-(4-pyridyl)pyrrolidinyl)(3-pyridyl))-N-(3-pyridylmethyl)carboxamide] | 2.97
CNC(=O)CNC(=O)c1ccc(N2CCC(F)(F)C2)nc1NCCc1cccc(F)c1 [Compound 97, 2-[(6-(3,3-difluoropyrrolidinyl)-2-{[2-(3-fluorophenyl)ethyl]amino}(3-pyridyl))carbonylamino]-N-methylacetamide] | 0.931
NCc1cccc(CNC(=O)c2ccc(N3CCCC3)nc2NCCc2cccc(F)c2)n1 [Compound 98, N-{[6-(aminomethyl)(2-pyridyl)]methyl}(2-{[2-(3-fluorophenyl)ethyl]amino}-6-pyrrolidinyl(3-pyridyl))carboxamide] | 0.213
O=C(NCc1cccnc1)c1ccc(N2CCC(C(F)(F)F)C2)nc1NCCc1cccc(F)c1 (stereo not drawn) [Compound 99, (2-{[2-(3-fluorophenyl)ethyl]amino}-6-[3-(trifluoromethyl)pyrrolidinyl](3-pyridyl))-N-(3-pyridylmethyl)carboxamide] | 2.49
O=C(NCc1cccnc1)c1ccc(N2CCC(F)(F)C2)nc1NCCc1cccc(F)c1 [Compound 100, (6-(3,3-difluoropyrrolidinyl)-2-{[2-(3-fluorophenyl)ethyl]amino}(3-pyridyl))-N-(3-pyridylmethyl)carboxamide] | 0.274

Structure (SMILES) | IC50 [µM]
NCc1cccc(CNC(=O)c2ccc(N3CCCCC3)nc2NCCc2cccc(F)c2)n1 [Compound 101, N-{[6-(aminomethyl)(2-pyridyl)]methyl}(2-{[2-(3-fluorophenyl)ethyl]amino}-6-piperidyl(3-pyridyl))carboxamide] | 0.334
NCc1cccc(CNC(=O)c2ccc(N3CC[C@H](O)C3)nc2NCCc2cccc(F)c2)n1 [Compound 102, (6-((3S)-3-hydroxypyrrolidinyl)-2-{[2-(3-fluorophenyl)ethyl]amino}(3-pyridyl))-N-{[6-(aminomethyl)(2-pyridyl)]methyl}carboxamide] | 3.07
NCc1cccc(CNC(=O)c2ccc(N3CC[C@@H](O)C3)nc2NCCc2cccc(F)c2)n1 [Compound 103, (6-((3R)-3-hydroxypyrrolidinyl)-2-{[2-(3-fluorophenyl)ethyl]amino}(3-pyridyl))-N-{[6-(aminomethyl)(2-pyridyl)]methyl}carboxamide] | 2.22
O=C(NCc1cccnc1)c1ccc(N2CC[C@@H](F)C2)nc1NCCc1cccc(F)c1 [Compound 104, (6-((3R)-3-fluoropyrrolidinyl)-2-{[2-(3-fluorophenyl)ethyl]amino}(3-pyridyl))-N-(3-pyridylmethyl)carboxamide] | 0.107
NCC1CCN(c2ccc(C(=O)NCc3cccnc3)c(NCCc3cccc(F)c3)n2)CC1 [Compound 105, (6-[4-(aminomethyl)piperidyl]-2-{[2-(3-fluorophenyl)ethyl]amino}(3-pyridyl))-N-(3-pyridylmethyl)carboxamide] | 39.1
CNC(=O)CNC(=O)c1ccc(N2CCCCC2)nc1NCCc1cccc(F)c1 [Compound 106, 2-[(2-{[2-(3-fluorophenyl)ethyl]amino}-6-piperidyl(3-pyridyl))carbonylamino]-N-methylacetamide] | 1.12
CS(=O)(=O)C1CCN(c2ccc(C(=O)NCc3cccnc3)c(NCCc3cccc(F)c3)n2)C1 (stereo not drawn) [Compound 107, (2-{[2-(3-fluorophenyl)ethyl]amino}-6-[3-(methylsulfonyl)pyrrolidinyl](3-pyridyl))-N-(3-pyridylmethyl)carboxamide] | 11.5
COC[C@@H]1CCCN1c1ccc(C(=O)NCc2cccnc2)c(NCCc2cccc(F)c2)n1 [Compound 108, (6-[(2S)-2-(methoxymethyl)pyrrolidinyl]-2-{[2-(3-fluorophenyl)ethyl]amino}(3-pyridyl))-N-(3-pyridylmethyl)carboxamide] | 67.3
CC(C)(C)OC(=O)NCC1CCN(c2ccc(C(=O)NCc3cccnc3)c(NCCc3cccc(F)c3)n2)CC1 [Compound 109, (tert-butoxy)-N-{[1-(6-{[2-(3-fluorophenyl)ethyl]amino}-5-[N-(3-pyridylmethyl)carbamoyl](2-pyridyl))(4-piperidyl)]methyl}carboxamide] | 4.56
CC(C)(C)OC(=O)NC1CCN(c2ccc(C(=O)NCc3cccnc3)c(NCCc3cccc(F)c3)n2)CC1 [Compound 110, (tert-butoxy)-N-[1-(6-{[2-(3-fluorophenyl)ethyl]amino}-5-[N-(3-pyridylmethyl)carbamoyl](2-pyridyl))(4-piperidyl)]carboxamide] | 16.4
O=C(NCc1cccnc1)c1ccc(N2CCC(O)(c3ccccc3)CC2)nc1NCCc1cccc(F)c1 [Compound 111, (2-{[2-(3-fluorophenyl)ethyl]amino}-6-(4-hydroxy-4-phenylpiperidyl)(3-pyridyl))-N-(3-pyridylmethyl)carboxamide] | 16.7
CCOC(=O)C1CCN(c2ccc(C(=O)NCc3cccnc3)c(NCCc3cccc(F)c3)n2)CC1 [Compound 112, ethyl 1-(6-{[2-(3-fluorophenyl)ethyl]amino}-5-[N-(3-pyridylmethyl)carbamoyl]-2-pyridyl)piperidine-4-carboxylate] | 1.56
O=C(NCc1cccnc1)c1ccc(N2CC[C@H](F)C2)nc1NCCc1cccc(F)c1 [Compound 113, (6-((3S)-3-fluoropyrrolidinyl)-2-{[2-(3-fluorophenyl)ethyl]amino}(3-pyridyl))-N-(3-pyridylmethyl)carboxamide] | 0.431
CNC(=O)C1CCN(c2ccc(C(=O)NCc3cccnc3)c(NCCc3cccc(F)c3)n2)CC1 [Compound 114, (2-{[2-(3-fluorophenyl)ethyl]amino}-6-[4-(N-methylcarbamoyl)piperidyl](3-pyridyl))-N-(3-pyridylmethyl)carboxamide] | 11
O=C(NCc1cccnc1)c1ccc(N2CCC(O)CC2)nc1NCCc1cccc(F)c1 [Compound 115, (2-{[2-(3-fluorophenyl)ethyl]amino}-6-(4-hydroxypiperidyl)(3-pyridyl))-N-(3-pyridylmethyl)carboxamide] | 0.756
O=C(NCc1cccnc1)c1ccc(N2CCNCC2)nc1NCCc1cccc(F)c1 [Compound 116, (2-{[2-(3-fluorophenyl)ethyl]amino}-6-piperazinyl(3-pyridyl))-N-(3-pyridylmethyl)carboxamide] | 31.8
